Results: US7531527B2, “2-Propylidene-19-nor-vitamin D compounds” (Wisconsin Alumni Research Foundation, priority 2003, dated 2009)

Columns and labels:
[1] = tested on: Male, weanling Sprague-Dawley rats; assay: Bone calcium mobilization (serum calcium); assay type: in vivo, rat; settings: four consecutive ip doses, FIG. 6
Method: (§1) Male, weanling Sprague-Dawley rats were placed on Diet 11 (0.47% Ca) diet+AEK for one week followed by Diet 11 (0.02% Ca)+AEK for 3 weeks. The rats were then switched to a diet containing 0.47% Ca for one week followed by two weeks on a diet containing 0.02% Ca. Dose administration began during the last week on 0.02% calcium diet. Four consecutive ip doses were given approximately 24 hours apart. Twenty-four hours after the last dose, blood was collected from the severed neck and the concentration of serum calcium determined as a measure of bone calcium mobilization. The first 10 cm of the intestine was also collected for intestinal calcium transport analysis using the everted gut sac method.

[2] = tested on: Male, weanling Sprague-Dawley rats; assay: Intestinal calcium transport (everted gut sac method); assay type: in vivo, rat; settings: four consecutive ip doses, FIG. 5
Method: as §1

[3] = tested on: 24-hydroxylase (24OHase) gene promoter; assay: Transcription activation, 24-hydroxylase promoter luciferase reporter in ROS 17/2.8 (bone) cells; assay type: cell-based; settings: ROS 17/2.8 cells, 16 hours after dosing, FIG. 4
Method: Transcriptional activity was measured in ROS 17/2.8 (bone) cells that were stably transfected with a 24-hydroxylase (24OHase) gene promoter upstream of a luciferase reporter gene (Arbour et al., 1998). Cells were given a range of doses. Sixteen hours after dosing the cells were harvested and luciferase activities were measured using a luminometer.
“RLU” in FIG. 4 refers to relative luciferase units.

[4] = tested on: human leukemia cells (HL-60 cells); assay: HL-60 cell differentiation (NBT reduction); assay type: cell-based; settings: for potency in promoting the differentiation of leukemia cells: HL-60 cells, compared with 1α,25-dihydroxyvitamin D3 and 2MD, FIG. 3; for percent of HL-60 cells induced to differentiate: NBT assay, concentration 1×10^−7M
Method: The differentiation of HL-60 promyelocytic into monocytes was determined as described by Ostrem et al (J. Biol. Chem. 262, 14164-14171, 1987).
Differentiation activity was assessed by a standard differentiation assay, abbreviated as NBT reduction (nitroblue tetrazolium reduction). The assay was conducted according to known procedures, as given, for example, by DeLuca et al U.S. Pat. No. 4,717,721 and Ostrem et al, J. Biol. Chem. 262, 14164, 1987. For the assay, the differentiation activity of the test compounds is expressed in terms of the percent of HL-60 cells having differentiated to normal cells in response to a given concentration of test compound.

[5] = biological target: T1, recombinantly produced rat receptor (1α,25-hydroxyvitamin D3 rat receptor) (Rattus norvegicus, UniProt P13053); assay: Competitive VDR binding; settings: FIGS. 1 and 2
T1 construct: made in house
T1 sequence (P13053 1-423): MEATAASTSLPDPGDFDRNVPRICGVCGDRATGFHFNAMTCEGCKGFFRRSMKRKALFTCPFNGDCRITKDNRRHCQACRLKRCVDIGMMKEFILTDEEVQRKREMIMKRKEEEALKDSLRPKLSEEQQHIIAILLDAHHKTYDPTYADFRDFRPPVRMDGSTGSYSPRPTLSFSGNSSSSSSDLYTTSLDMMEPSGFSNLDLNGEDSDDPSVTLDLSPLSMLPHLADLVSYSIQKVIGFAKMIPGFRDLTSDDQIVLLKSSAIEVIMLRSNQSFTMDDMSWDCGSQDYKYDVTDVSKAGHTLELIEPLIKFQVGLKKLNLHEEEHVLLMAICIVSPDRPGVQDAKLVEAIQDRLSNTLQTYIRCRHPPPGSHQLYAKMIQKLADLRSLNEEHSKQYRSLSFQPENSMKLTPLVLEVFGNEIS
Method: Competitive binding of the analogs to the porcine intestinal receptor was carried out by the method described by Dame et al (Biochemistry 25, 4523-4534, 1986), except the recombinantly produced rat receptor was used as the receptor (see Vanhooke et al., Biochemistry, in press, 2004).

| activity in binding to the 1α,25-hydroxyvitamin D3 rat receptor [5] | Substance | ability to mobilize calcium from bone [1] | bone calcium mobilization compared with 2MD [1] | intestinal calcium transport activity [2] | intestinal calcium transport activity compared with 2MD [2] | transcriptional activity in bone cells [3] | potency in promoting the differentiation of leukemia cells [4] | percent of HL-60 cells induced to differentiate [4] |
| --- | --- | --- | --- | --- | --- | --- | --- | --- |
| – | 2-[(3′-methoxymethoxy)propylidene]-19-nor-1α,25-dihydroxyvitamin D3 [F-Wit] | significant ability to mobilize calcium from bone | less active in this regard than 2MD | relatively high intestinal calcium transport activity | more active than 2MD | significant transcriptional activity | – | – |
| very active | 2-(3′-hydroxypropylidene)-19-nor-1α,25-(OH)2D3 [1AGR] | significant ability to mobilize calcium from bone | less active in this regard than 2MD | relatively high intestinal calcium transport activity | more active than 2MD | significant transcriptional activity | as potent as 1α,25-dihydroxyvitamin D3 and 2MD | the same degree of differentiation |
| very active | 2-(3′-hydroxypropylidene)-19-nor-(20S)-1α,25-(OH)2D3 [1AGS] | significant ability to mobilize calcium from bone | less active in this regard than 2MD | relatively high intestinal calcium transport activity | more active than 2MD | significant transcriptional activity | as potent as 1α,25-dihydroxyvitamin D3 and 2MD | the same degree of differentiation |
